Laboratory results reported in patent US4104389A, “Antiallergic pyrido[2,1-b]quinazolin-ones” (Warner-Lambert Company, priority 1977, dated 1978).
Like-named read-outs stand apart in the source and are kept apart here.

How the values were obtained:
[1] = Netherlands Pat. No. 6,414,717; cited from earlier work
[2] = tested on: antibody-antigen reactions (PCA); assay: PCA (rat), procedure of Herzig; reduction of allergic responses to antigen challenge; format: in vivo
Experimental: When tested in accordance with the procedure of Herzig [Immunopharmacology, M. E. Rosenthale and H. C. Mansmann, Eds., John Wiley and Son, N.Y., 1975], these compounds as shown in Table I may be administered orally, parenterally, or by aerosol at a dose of 0.005-20mg/kg. Compounds of this invention are useful in the management of allergic reactions such as bronchial asthma.

[3] = rat, iv., read-out: ED50 - PCA (rat) iv.

Structure (SMILES) | anti-inflammatory action [1] | activity compared with isomers of the invention ([2]; comparison in words, Table I) | PCA (rat) inhibition, ip. ([2]; rat, ip., 10mg/kg) | PCA (rat) activity, po., in words ([2]; rat, po., 10mg/kg) | ED50 - PCA (rat) ip., in words ([2]; rat, ip., dose not given) | ED50 [2, 3] | ED50 - PCA (rat) po., in words ([2]; rat, po., dose not given) | activity when given intravenously ([2]; intravenously) | activity when given orally ([2]; orally) | ED50 ([2]; rat, ip., read-out: ED50 - PCA (rat) ip.) | ED50 ([2]; rat, po., read-out: ED50 - PCA (rat) po.)
O=C(O)c1cccn2c(=O)c3ccccc3nc12 [Example 799] | possesses anti-inflammatory action | less active | 21% | inactive | – | – | – | – | – | – | –
O=C(O)c1cc(=O)c2c(OCC(O)COc3cccc4oc(C(=O)O)cc(=O)c34)cccc2o1 [Intal] | – | – | – | – | inact. | 1 to 2 mg/kg | inactive | – | – | – | –
O=C(O)c1ccc2nc3ccccc3c(=O)n2c1 [Example 1, 11-oxo-11H-pyrido[2,1-b]quinazoline-8-carboxylic acid] | – | – | – | – | – | 0.2 mg/kg | – | active | active | 2 mg/kg | 2 mg/kg
